Data on one compound can be found in article PMC9561263 (2022).

This assay relates to 32R-3n (DNA, G4) GCGGTGTGGGAAGAGGGAAGAGGGGGAGGCAG
The experiment in a line: UV melting, 260 nm. The settings on record: 0.1 M Li+; 0.02 M Tris-HCl pH 7.0; 4 μM DNA, 40 μM ThT; psDNA.

As for `Cc1ccc2c(c1)sc(-c1ccc(N(C)C)cc1)[n+]2C`, the ΔTm was ~ 19.8 °C.
